{"source": "paper PMC3517777", "about": "“Phase I study of TP300 in patients with advanced solid tumors with pharmacokinetic, pharmacogenetic and pharmacodynamic analyses” (BMC Cancer, 2012)", "key": {"[1]": {"assay": "Phase I dose escalation of TP300: toxicity (CTCAE v3.0), DLT, MTD", "format": "in vivo, human", "description": "TP300 was given as a 1-hour intravenous (i.v.) infusion, by peripheral venous catheter, every 3 weeks.\nThe starting dose of 1 mg/m^2 was derived from single and repeat dose toxicity studies and represented one sixth of 0.3 mg/kg (6 mg/m^2), a dose tolerated without evidence of serious, irreversible or life-threatening toxicity in the most sensitive of the two species tested. Doses were doubled in subsequent cohorts until grade ≥2 toxicity was observed, whereupon a modified Fibonacci dose escalation scheme was used. In each cohort the first patient was required to complete 1 cycle before subsequent patients were entered. Intra-patient dose-escalation was not allowed.\n(§1) The MTD was the dose level below that at which ≥ 2 out of 3–6 patients experienced a DLT. Radiologic assessment of disease was performed every 2 cycles. Patients could remain on treatment if there was evidence of clinical benefit but were withdrawn from the study upon clinical or radiologic progression, unacceptable toxicity or withdrawal of consent.\nToxicity was assessed weekly and graded using the National Cancer Institute Common Toxicity Criteria (CTCAE) version 3.0. DLT was defined as the occurrence of any of the following adverse events: grade 4 thrombocytopenia; febrile neutropenia or grade 4 neutropenia > 5 days duration; grade 4 diarrhoea not reduced to grade 1 within 2 days of appropriate therapy; other gastro-intestinal toxicities (e.g. vomiting, nausea, stomatitis) ≥ grade 3 and not reduced to grade 1 within 2 days of appropriate therapy; any other non-haematologic toxicities ≥ grade 3 (excluding alopecia)."}, "[2]": {"assay": "Plasma and urine pharmacokinetics after TP300 infusion (LC-MS/MS, non-compartmental)", "format": "in vivo, human", "details": "for concentration at 1 h: human, in vivo, read-out: Plasma TP300 concentration 1 h after administration, mean", "description": "Venous blood (3 mL) was taken into sodium heparin tubes containing 30 μL of 46% citric acid, centrifuged 1500g at 4°C for 10 min and 1 mol/L hydrochloric acid was added (1:10) to plasma from each subject at 10 time points during cycle 1 (pre dose, then 1, 1.25, 1.5, 2, 3, 5, 8, 24, 48 hours after the start of administration) and stored at −70°C. Samples were processed by extraction of protein using addition of organic solvent containing internal standards and assayed by LC-MS/MS with a robust, sensitive and validated method for the simultaneous determination of a novel topoisomerase 1 inhibitor CH0793076 (TP3076), the prodrug CH4556300 (TP300), and the active metabolite CH0793011 (TP3011). All plasma had been acidified during collection to avoid the pH-based degradation of TP300 and to shift the equilibria of TP3076 and TP3011 between the lactone and carboxylate forms towards the lactone forms. After the plasma proteins were precipitated with methanol:acetonitrile:HCl 1M (50:50:1, v:v:v) containing stable isotopic internal standards, the analytes were trapped on an Xterra MS C18 column (10×2.1 mm i.d., 5 μm) and separated on a Gemini C18 column (50×2.0 mm i.d., 5 μm) using column-switching liquid chromatography. Electrospray ionization in the positive-ion mode and multiple reaction monitoring were used to quantify the analytes with transitions m/z 587.2>441.2 for TP300, 459.1>415.2 for 3076, and 475.1>361.1 for 3011. The inter- and intra-day precisions were below 12%, and the accuracy was between −16% and 16% at the lower limit of quantitation (LLOQ) and between −11% and 14% at the other quality controls. The LLOQs of TP300, TP3076, and TP3011 were 0.8, 0.04, and 0.04 ng/mL, respectively.\nPharmacokinetic parameters derived from plasma concentration-time data of TP3076 or TP3011 by non-compartmental methods using WinNonlin (version 5.1; Pharsight Corp), included maximal plasma concentration (Cmax) and time of Cmax (Tmax), apparent plasma elimination half-life (t1/2), and the area under the curve (AUC). The urinary excretion ratio (fe) of TP3076 and TP3011 was calculated from the urinary concentration and volume up to 48 hours after administration, and the administration dose. The linearity of Cmax and AUC was determined with linear regression, analysis of variance and power model analysis. The sum of the AUCs of TP3076 and TP3011 was plotted against percentage (%) fall in nadir neutrophil count to explore the relationship between exposure and myelosuppression as a measure of anti-proliferative effect and a sigmoid Emax model fitted to the data: […]"}, "advanced solid tumors": {"test_system": "advanced solid tumors", "assay": "Antitumour activity (RECIST) in Phase I patients", "format": "in vivo, human", "description": "as §1"}, "[3]": {"test_system": "peripheral blood mononuclear cells (PBMCs)", "assay": "Single cell gel electrophoresis (comet) assay of DNA strand breaks", "format": "in vivo, human", "details": "1 hour post first dose, across all doses", "description": "Analysis of the ability of TP300 to induce DNA strand breaks was performed on peripheral blood mononuclear cells (PBMCs), pre-dose, 1, 3 and 24 hours post cycle 1. A validated single cell gel electrophoresis (comet) assay was used to assess DNA single-strand breaks. An average of 50 PBMC cells/time-point were analysed and the tail moment (TM) calculated, as the product of the percentage of DNA in the comet tail and the distance between head and tail distributions; higher TM values reflect greater DNA strand breakage. Statistical analyses were not performed due to the limited number of subjects/samples per cohort."}, "[4]": {"test_system": "range of tumour types in vitro", "parameters": "method as in PMID 19495753", "details": "cited from earlier work"}, "[5]": {"details": "suspected treatment related adverse events within cycle 1, N = 32, all doses 1-12 mg/m^2"}}, "note": "Like-named read-outs stand apart in the source and are kept apart here."}
{"smiles": "CCCCCN1C=Nc2cccc3nc4c(c1c23)Cn1c-4cc2c(c1=O)COC(=O)[C@@]2(CC)OC(=O)CN(C)C(=O)CN", "note": "[TP300, glycine,glycyl-N-methyl-,(9S)-9-ethyl-9,10,13,15-tetrahydro-10,13-dioxo-1-pentyl-1H,12H-pyrano[3'',4'':6′,7′]indolizino[2′,1′:5,6]pyrido[4,3,2-de]quinazolin-9-yl ester, hydro-chloride]", "values": [{"measurement": "DLTs (patients with DLT / patients dosed)", "setting": "[1]; 10 mg/m^2", "value": "3/12"}, {"measurement": "DLTs (patients with DLT / patients dosed)", "setting": "[1]; 12 mg/m^2", "value": "2/4"}, {"measurement": "MTD (maximum tolerated dose)", "setting": "[1]; 1-hour i.v. infusion 3-weekly, patients with advanced solid tumors", "value": 10, "unit": "mg/m^2"}, {"measurement": "worst grade of diarrhoea", "setting": "[1]; 8 patients developed diarrhoea, all doses", "value": "≤ 2", "unit": "grade"}, {"measurement": "time to diarrhoea after TP300 treatment, average", "setting": "[1]; 8 patients with diarrhoea", "value": 9.5, "unit": "days"}, {"measurement": "time to diarrhoea after TP300 treatment, range", "setting": "[1]; 8 patients with diarrhoea", "value": "1 to 27", "unit": "days"}, {"measurement": "cholinergic effects", "setting": "[1]; 32 patients, all doses", "value": "no patient experienced cholinergic effects"}, {"measurement": "patients discontinued due to toxicity", "setting": "[1]; 32 patients, all doses", "value": 4, "unit": "patients"}, {"measurement": "treatment-related deaths", "setting": "[1]; 32 patients, all doses", "value": "no treatment-related deaths"}, {"measurement": "recommended Phase II starting dose", "setting": "[1]; cycle 1", "value": 8, "unit": "mg/m^2"}, {"measurement": "recommended Phase II dose on subsequent cycles", "setting": "[1]; escalation if initial treatment is well tolerated", "value": 10, "unit": "mg/m^2"}, {"measurement": "Anaemia, All grade", "setting": "[1]; [5]", "value": "6 ( 19) No. (%)"}, {"measurement": "Anaemia, Grade 3", "setting": "[1]; [5]", "value": "2 ( 6) No. (%)"}, {"measurement": "Back pain, All grade", "setting": "[1]; [5]", "value": "1 ( 3) No. (%)"}, {"measurement": "Back pain, Grade 3", "setting": "[1]; [5]", "value": "1 ( 3) No. (%)"}, {"measurement": "Chills, All grade", "setting": "[1]; [5]", "value": "2 ( 6) No. (%)"}, {"measurement": "Chills, Grade 3", "setting": "[1]; [5]", "value": "1 ( 3) No. (%)"}, {"measurement": "Diarrhea, All grade", "setting": "[1]; [5]", "value": "8 ( 25) No. (%)"}, {"measurement": "Diarrhea, Grade 3", "setting": "[1]; [5]", "value": "0 (0) No. (%)"}, {"measurement": "Dyspnoea, All grade", "setting": "[1]; [5]", "value": "1 ( 3) No. (%)"}, {"measurement": "Dyspnoea, Grade 3", "setting": "[1]; [5]", "value": "1 ( 3) No. (%)"}, {"measurement": "Febrile neutropenia, All grade", "setting": "[1]; [5]", "value": "2 ( 6) No. (%)"}, {"measurement": "Febrile neutropenia, Grade 3", "setting": "[1]; [5]", "value": "2 ( 6) No. (%)"}, {"measurement": "Hepatorenal failure, All grade", "setting": "[1]; [5]", "value": "1 ( 3) No. (%)"}, {"measurement": "Hepatorenal failure, Grade 3", "setting": "[1]; [5]", "value": "1 ( 3) No. (%)"}, {"measurement": "Lethargy, All grade", "setting": "[1]; [5]", "value": "12 ( 38) No. (%)"}, {"measurement": "Lethargy, Grade 3", "setting": "[1]; [5]", "value": "4 ( 13) No. (%)"}, {"measurement": "Leukopenia, All grade", "setting": "[1]; [5]", "value": "3 ( 9) No. (%)"}, {"measurement": "Leukopenia, Grade 3", "setting": "[1]; [5]", "value": "3 ( 9) No. (%)"}, {"measurement": "Nausea, All grade", "setting": "[1]; [5]", "value": "13 ( 41) No. (%)"}, {"measurement": "Nausea, Grade 3", "setting": "[1]; [5]", "value": "0 (0) No. (%)"}, {"measurement": "Neutropenia, All grade", "setting": "[1]; [5]", "value": "6 ( 19) No. (%)"}, {"measurement": "Neutropenia, Grade 3", "setting": "[1]; [5]", "value": "6 ( 19) No. (%)"}, {"measurement": "Neutropenic sepsis, All grade", "setting": "[1]; [5]", "value": "1 ( 3) No. (%)"}, {"measurement": "Neutropenic sepsis, Grade 3", "setting": "[1]; [5]", "value": "1 ( 3) No. (%)"}, {"measurement": "Syncope, All grade", "setting": "[1]; [5]", "value": "1 ( 3) No. (%)"}, {"measurement": "Syncope, Grade 3", "setting": "[1]; [5]", "value": "1 ( 3) No. (%)"}, {"measurement": "Thrombocytopenia, All grade", "setting": "[1]; [5]", "value": "3 ( 9) No. (%)"}, {"measurement": "Thrombocytopenia, Grade 3", "setting": "[1]; [5]", "value": "3 ( 9) No. (%)"}, {"measurement": "Vomitting, All grade", "setting": "[1]; [5]", "value": "9 ( 28) No. (%)"}, {"measurement": "Vomitting, Grade 3", "setting": "[1]; [5]", "value": "0 (0) No. (%)"}, {"measurement": "measured plasma concentrations 1.5 h after dose", "setting": "[2]; all doses, LLOQ of TP300 0.8 ng/mL", "value": "below the limit of the quantification"}, {"measurement": "concentration at 1 h", "setting": "[2]; TP300 2 mg/m^2", "value": 3.48, "unit": "ng/mL"}, {"measurement": "concentration at 1 h", "setting": "[2]; TP300 8 mg/m^2", "value": 2.34, "unit": "ng/mL"}, {"measurement": "concentration at 1 h", "setting": "[2]; TP300 10 mg/m^2", "value": 7.37, "unit": "ng/mL"}, {"measurement": "concentration at 1 h", "setting": "[2]; TP300 12 mg/m^2", "value": 18.4, "unit": "ng/mL"}, {"measurement": "patients with stable disease as best response", "setting": "advanced solid tumors; 1 each at 4, 8 and 12 mg/m^2 and 3 at 10 mg/m^2", "value": "six"}, {"measurement": "objective response as determined by RECIST", "setting": "advanced solid tumors; 32 patients, 1-12 mg/m^2", "value": "no complete or partial responses"}, {"measurement": "duration of stable disease", "setting": "advanced solid tumors; six patients with stable disease", "value": "1.5-5 months"}, {"measurement": "increase of DNA strand breaks vs pre-treatment", "setting": "[3]", "value": "approximately 2 fold"}, {"measurement": "mean tail moment (TM)", "setting": "[3]; pre-treatment mean 0.69", "value": 1.65}, {"measurement": "activity across a range of tumour types in vitro", "setting": "[4]", "value": "activity at nanomolar concentrations"}]}
